Experimental data published in patent publication US12643887B2, “Heterocyclic derivatives with cardiomyocyte proliferation activity for treatment of heart diseases” (Tongji University, priority 2019, dated 2026).
Like-named read-outs stand apart in the source and are kept apart here.

Biological target: T1, human CK2a2 (CSNK2a2) (Homo sapiens, UniProt P19784)
T1 construct: Recombinant human CK2a2 (CSNK2a2) (full length); GST (N); purchased SignalChem C71-10G; host or cells: Sf9 insect cells
Assay: CK2a2 (CSNK2a2) enzyme assay (ADP-Glo)
Assay type: biochemical
Procedure: 8. CK2a2 (CSNK2a2) Enzyme Assay
The ability of compounds to inhibit human CK2a2 (CSNK2a2) kinase activities was determined using a commercially available ADP-Glo™ Kinase Assay kit (Promega, Cat #V9102) according to the manufacturer's protocol.
Recombinant human CK2a2 (CSNK2a2) (full length) (expressed in Sf9 insect cells with an N-terminal GST tag) was purchased from SignalChem (Cat #C71-10G). CK2 substrate (sequence: […]) was purchased from SignalChem (Cat #C08-58). This assay, run in a 384-well plate format, is a generic method for measuring kinase activities using an ADP-Glo Kinase Assay Kit. The basic assay procedure involves two steps: (1) Enzymatic step: inhibitors are incubated with the kinase and then ATP (included in the ADP-Glo Kinase Assay Kit) and the MBP protein are added to start the enzymatic reaction; (2) Detection step: after the kinase reaction, first ADP-Glo™ Reagent is added to terminate the kinase reaction and deplete the remaining ATP. Second, the Kinase Detection Reagent is added to simultaneously convert ADP to ATP and allow the newly synthesized ATP to be measured using a luciferase/luciferin reaction. The light generated is measured using a luminometer.
Briefly, CK2a2 (CSNK2a2) (7 nM) in the enzymatic buffer solutions (40 mM Tris, pH 7.5, 20 mM MgCl2, 0.1 mg/ml BSA, 50 μM DTT) were mixed with various concentrations of inhibitors (dissolved in 100% DMSO). These solutions were incubated for 30 minutes at 25° C., and subsequently a mixture of substrate peptide and ATP was added with the final peptide and ATP concentrations at 0.04 mg/ml and 15 μM, respectively. The final reaction mixture of enzyme-substrate-ATP-compound was incubated for 90 minutes at 25° C.
Afterwards ADP-Glo™ Reagent was added and the mixture was incubated at 25° C. for 60 minutes. Then Kinase Detection Reagent was added, and the final mixture was incubated at 25° C. for 60 minutes. The luminescence signal of the final solution was measured on an Envision instrument (PerkinElmer). The percent (%) inhibition at each concentration of a compound is calculated relative to the luminescence signal in the Max and Min control wells contained within each assay plate. […] The concentrations and percent inhibition values for a test compound are plotted and the concentration of the compound required to achieve 50% inhibition (IC50) is determined with a four-parameter logistic dose response equation.

[1] = ADP-Glo, ATP 15 μM, read-out: CK2 alpha 2 IC50

T1 sequence (P19784 whole entry): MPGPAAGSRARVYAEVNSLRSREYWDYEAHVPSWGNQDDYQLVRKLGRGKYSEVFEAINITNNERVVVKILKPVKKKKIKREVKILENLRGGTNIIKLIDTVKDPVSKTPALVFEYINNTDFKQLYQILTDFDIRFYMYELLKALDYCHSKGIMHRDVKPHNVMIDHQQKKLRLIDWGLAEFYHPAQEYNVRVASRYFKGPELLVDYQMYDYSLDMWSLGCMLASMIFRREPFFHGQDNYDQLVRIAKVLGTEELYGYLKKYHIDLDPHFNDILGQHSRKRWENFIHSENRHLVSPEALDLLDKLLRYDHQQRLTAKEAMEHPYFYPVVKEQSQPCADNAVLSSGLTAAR

Compound	IC50 [1] [nM]	IC50 [nM]
CCN(C1=N/C(=C\c2ccc3c(c2)OCO3)C(=O)N1)c1ccccc1 [Example 4, (Z)-5-(benzo[d][1,3]dioxol-5-ylmethylene)-2-(ethyl(phenyl)amino)-3,5-dihydro-4H-imidazol-4-one]	100 to 1000	
CC(=O)N(C1=N/C(=C\c2ccc3c(c2)OCO3)C(=O)N1)c1ccccc1 [Example 5, (Z)—N-(4-(benzo[d][1,3]dioxol-5-ylmethylene)-5-oxo-4,5-dihydro-1H-imidazol-2-yl)-N-phenylacetamide]		< 100
Cc1nc2ccc(NC3=N/C(=C\c4ccc5ncsc5c4)C(=O)N3)cc2s1 [Example 90, (Z)-5-(benzo[d]thiazol-6-ylmethylene)-2-((2-methylbenzo[d]thiazol-6-yl)amino)-3,5-dihydro-4H-imidazol-4-one]	< 100	
Nc1ccc(NC2=N/C(=C\c3ccc4ncsc4c3)C(=O)N2)cc1 [Example 98, (Z)-2-((4-aminophenyl)amino)-5-(benzo[d]thiazol-6-ylmethylene)-3,5-dihydro-4H-imidazol-4-one]	< 100	
